Assay results reported in patent US20260262643A1, “HERBICIDAL BENZOXAZINES” (FMC CORPORATION, priority 2022, published 2026).

What was measured:
barnyardgrass [1] = experiment: Test C preemergence; type: in vivo, Echinochloa crusgalli; conditions: 0 to 100 scale (0 no effect, 100 complete control); for Plant response rating, Barnyardgrass: Preemergence, 500 g ai/ha, visual rating after 10 days; for Barnyardgrass plant response rating: Test C, preemergence, 125 g ai/ha
In short: (§1)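 Visual injury ratings on a 0–100 scale (100 = complete control) were made against untreated controls 10 days after treatment in the greenhouse. Compounds, formulated with surfactant in non-phytotoxic solvent, were sprayed on soil preemergence or onto one- to two-leaf plants 2–10 cm tall postemergence.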

blackgrass [2] = experiment: Test C preemergence; type: in vivo, Alopecurus myosuroides; conditions: 0 to 100 scale (0 no effect, 100 complete control); for Plant response rating, Blackgrass: Preemergence, 500 g ai/ha, visual rating after 10 days; for Blackgrass plant response rating: Test C, preemergence, 125 g ai/ha
In short: as §1

corn [3] = experiment: Test C preemergence; type: in vivo, Zea mays; conditions: preemergence, 0 to 100 scale (0 no effect, 100 complete control)
In short: as §1

green foxtail [4] = experiment: Test C preemergence; type: in vivo, Setaria viridis; conditions: preemergence, 0 to 100 scale (0 no effect, 100 complete control)
In short: as §1

kochia [5] = experiment: Test C preemergence; type: in vivo, Bassia scoparia; conditions: preemergence, 0 to 100 scale (0 no effect, 100 complete control)
In short: as §1

oat, wild [6] = experiment: Test C preemergence; type: in vivo, Avena fatua; conditions: preemergence, 0 to 100 scale (0 no effect, 100 complete control)
In short: as §1

pigweed, palmer [7] = experiment: Test C preemergence; type: in vivo, Amaranthus palmeri; conditions: preemergence, 0 to 100 scale (0 no effect, 100 complete control)
In short: as §1

ragweed [8] = experiment: Test C preemergence; type: in vivo, Ambrosia artemisiifolia; conditions: preemergence, 0 to 100 scale (0 no effect, 100 complete control)
In short: as §1

ryegrass, Italian [9] = experiment: Test C preemergence; type: in vivo, Lolium multiflorum; conditions: preemergence, 0 to 100 scale (0 no effect, 100 complete control)
In short: as §1

soybean [10] = experiment: Test C preemergence; type: in vivo, Glycine max; conditions: preemergence, 0 to 100 scale (0 no effect, 100 complete control)
In short: as §1

wheat [11] = experiment: Test C preemergence; type: in vivo, Triticum aestivum; conditions: preemergence, 0 to 100 scale (0 no effect, 100 complete control)
In short: as §1

barnyardgrass [12] = experiment: Test C postemergence; type: in vivo, Echinochloa crusgalli; conditions: 10 days
In short: as §1

blackgrass [13] = experiment: Test C postemergence; type: in vivo, Alopecurus myosuroides; conditions: 10 days
In short: as §1

corn [14] = experiment: Test C postemergence; type: in vivo, Zea mays; conditions: 10 days
In short: as §1

green foxtail [15] = experiment: Test C postemergence; type: in vivo, Setaria viridis; conditions: 10 days
In short: as §1

kochia [16] = experiment: Test C postemergence; type: in vivo, Bassia scoparia; conditions: 125 g ai/ha, postemergence, 10 days; 0 to 100 scale, 0 no effect, 100 complete control
In short: as §1

oat, wild [17] = experiment: Test C postemergence; type: in vivo, Avena fatua; conditions: 125 g ai/ha, postemergence, 10 days; 0 to 100 scale, 0 no effect, 100 complete control
In short: as §1

pigweed, palmer [18] = experiment: Test C postemergence; type: in vivo, Amaranthus palmeri; conditions: 125 g ai/ha, postemergence, 10 days; 0 to 100 scale, 0 no effect, 100 complete control
In short: as §1

ragweed [19] = experiment: Test C postemergence; type: in vivo, Ambrosia artemisiifolia; conditions: 125 g ai/ha, postemergence, 10 days; 0 to 100 scale, 0 no effect, 100 complete control
In short: as §1

ryegrass, Italian [20] = experiment: Test C postemergence; type: in vivo, Lolium multiflorum; conditions: 125 g ai/ha, postemergence, 10 days; 0 to 100 scale, 0 no effect, 100 complete control
In short: as §1

soybean [21] = experiment: Test C postemergence; type: in vivo, Glycine max; conditions: 125 g ai/ha, postemergence, 10 days; 0 to 100 scale, 0 no effect, 100 complete control
In short: as §1

wheat [22] = experiment: Test C postemergence; type: in vivo, Triticum aestivum; conditions: 125 g ai/ha, postemergence, 10 days; 0 to 100 scale, 0 no effect, 100 complete control
In short: as §1

galium = experiment: Test C postemergence; type: in vivo, Galium aparine; conditions: 10 days
In short: as §1

horseweed = experiment: Test C postemergence; type: in vivo, Erigeron canadensis; conditions: 10 days
In short: as §1

barnyardgrass [23] = experiment: Test D flooded paddy test; type: in vivo, Echinochloa crus-galli; conditions: 250 g ai/ha, applied to paddy water, visual rating after 13 to 14 days, scale 0 to 100 (0 no effect, 100 complete control)
In short: (§2)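 At the 2-leaf stage, floodwater 3 cm deep received the test compound; that depth persisted throughout. Plants scored visually 13 to 14 days on, 0 (no effect) to 100 (complete control), dash indicating no result.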

ducksalad = experiment: Test D flooded paddy test; type: in vivo, Heteranthera limosa; conditions: 250 g ai/ha, applied to paddy water, visual rating after 13 to 14 days, scale 0 to 100 (0 no effect, 100 complete control)
In short: as §2

rice = experiment: Test D flooded paddy test; type: in vivo, Oryza sativa; conditions: 250 g ai/ha, applied to paddy water, visual rating after 13 to 14 days, scale 0 to 100 (0 no effect, 100 complete control)
In short: as §2

sedge, umbrella = experiment: Test D flooded paddy test; type: in vivo, Cyperus difformis; conditions: 250 g ai/ha, applied to paddy water, visual rating after 13 to 14 days, scale 0 to 100 (0 no effect, 100 complete control)
In short: as §2

[24] = 125 g ai/ha, postemergence, 0 to 100 scale, 0 no effect, 100 complete control
[25] = Postemergence, 500 g ai/ha, visual 0 to 100 scale (0 no effect, 100 complete control)

COC[C@H]1CN(C(=O)c2cc(-n3cnc(C4CC4)n3)ccc2C)c2cccc(Cl)c2O1 [Compound 266]
Plant response rating, Barnyardgrass (barnyardgrass [1]): 80 | Barnyardgrass plant response rating (barnyardgrass [1]): 50 | Plant response rating, Blackgrass (blackgrass [2]): 60 | Blackgrass plant response rating (blackgrass [2]): 30 | Corn plant response rating (corn [3]; 500 g ai/ha): 40 | Corn plant response rating (corn [3]; Test C, 125 g ai/ha): 20 | Foxtail, Green plant response rating (green foxtail [4]; 500 g ai/ha): 100 | Foxtail, Green plant response rating (green foxtail [4]; Test C, 125 g ai/ha): 100 | Kochia plant response rating (kochia [5]; 500 g ai/ha): 90 | Kochia plant response rating (kochia [5]; Test C, 125 g ai/ha): 90 | Oat, Wild plant response rating (oat, wild [6]; 500 g ai/ha): 90 | Oat, Wild plant response rating (oat, wild [6]; Test C, 125 g ai/ha): 40 | Pigweed, Palmer plant response rating (pigweed, palmer [7]; 500 g ai/ha): 100 | Pigweed, Palmer plant response rating (pigweed, palmer [7]; Test C, 125 g ai/ha): 100 | Ragweed plant response rating (ragweed [8]; 500 g ai/ha): 30 | Ragweed plant response rating (ragweed [8]; Test C, 125 g ai/ha): 0 | Ryegrass, Italian plant response rating (ryegrass, Italian [9]; 500 g ai/ha): 90 | Ryegrass, Italian plant response rating (ryegrass, Italian [9]; Test C, 125 g ai/ha): 80 | Soybean plant response rating (soybean [10]; 500 g ai/ha): 100 | Soybean plant response rating (soybean [10]; Test C, 125 g ai/ha): 80 | Wheat plant response rating (wheat [11]; 500 g ai/ha): 70 | Wheat plant response rating (wheat [11]; Test C, 125 g ai/ha): 30 | Plant response rating, Barnyardgrass (barnyardgrass [12]; [24]): 70 | Plant response rating, Barnyardgrass (barnyardgrass [12]; [25]): 90 | Plant response rating, Blackgrass (blackgrass [13]; [24]): 50 | Plant response rating, Blackgrass (blackgrass [13]; [25]): 80 | Plant response rating, Corn (corn [14]; [24]): 70 | Plant response rating, Corn (corn [14]; [25]): 70 | Plant response rating, Foxtail, Green (green foxtail [15]; [24]): 90 | Plant response rating, Foxtail, Green (green foxtail [15]; [25]): 90 | Plant response rating, Kochia (kochia [16]): 80 | Plant response rating, Oat, Wild (oat, wild [17]): 10 | Plant response rating, Pigweed, Palmer (pigweed, palmer [18]): 90 | Plant response rating, Ragweed (ragweed [19]): 70 | Plant response rating, Ryegrass, Italian (ryegrass, Italian [20]): 70 | Plant response rating, Soybean (soybean [21]): 100 | Plant response rating, Wheat (wheat [22]): 20 | Plant response rating, Galium (galium; [24]): 100 | Plant response rating, Galium (galium; [25]): 100 | Plant response rating, Horseweed (horseweed; [24]): 20 | Plant response rating, Horseweed (horseweed; [25]): 80 | Plant response rating, Barnyardgrass (Flood) (barnyardgrass [23]): 0 | Plant response rating, Ducksalad (Flood) (ducksalad): 75 | Plant response rating, Rice (Flood) (rice): 15 | Plant response rating, Sedge, Umbrella (Flood) (sedge, umbrella): 95

Cc1ccc(-n2cnc(CC3CC3)n2)cc1C(=O)N1C[C@H](C)Oc2c(Cl)cccc21 [Compound 273]
Plant response rating, Barnyardgrass (barnyardgrass [1]): 100 | Barnyardgrass plant response rating (barnyardgrass [1]): 40 | Plant response rating, Blackgrass (blackgrass [2]): 50 | Blackgrass plant response rating (blackgrass [2]): 0 | Corn plant response rating (corn [3]; 500 g ai/ha): 10 | Corn plant response rating (corn [3]; Test C, 125 g ai/ha): 0 | Foxtail, Green plant response rating (green foxtail [4]; 500 g ai/ha): 100 | Foxtail, Green plant response rating (green foxtail [4]; Test C, 125 g ai/ha): 100 | Kochia plant response rating (kochia [5]; 500 g ai/ha): 90 | Kochia plant response rating (kochia [5]; Test C, 125 g ai/ha): 60 | Oat, Wild plant response rating (oat, wild [6]; 500 g ai/ha): 80 | Oat, Wild plant response rating (oat, wild [6]; Test C, 125 g ai/ha): 20 | Pigweed, Palmer plant response rating (pigweed, palmer [7]; 500 g ai/ha): 100 | Pigweed, Palmer plant response rating (pigweed, palmer [7]; Test C, 125 g ai/ha): 90 | Ragweed plant response rating (ragweed [8]; 500 g ai/ha): 0 | Ragweed plant response rating (ragweed [8]; Test C, 125 g ai/ha): 0 | Ryegrass, Italian plant response rating (ryegrass, Italian [9]; 500 g ai/ha): 90 | Ryegrass, Italian plant response rating (ryegrass, Italian [9]; Test C, 125 g ai/ha): 70 | Soybean plant response rating (soybean [10]; 500 g ai/ha): 70 | Soybean plant response rating (soybean [10]; Test C, 125 g ai/ha): 10 | Wheat plant response rating (wheat [11]; 500 g ai/ha): 40 | Wheat plant response rating (wheat [11]; Test C, 125 g ai/ha): 0 | Plant response rating, Barnyardgrass (barnyardgrass [12]; [24]): 30 | Plant response rating, Barnyardgrass (barnyardgrass [12]; [25]): 70 | Plant response rating, Blackgrass (blackgrass [13]; [24]): 10 | Plant response rating, Blackgrass (blackgrass [13]; [25]): 80 | Plant response rating, Corn (corn [14]; [24]): 10 | Plant response rating, Corn (corn [14]; [25]): 30 | Plant response rating, Foxtail, Green (green foxtail [15]; [24]): 40 | Plant response rating, Foxtail, Green (green foxtail [15]; [25]): 90 | Plant response rating, Kochia (kochia [16]): 70 | Plant response rating, Oat, Wild (oat, wild [17]): 0 | Plant response rating, Pigweed, Palmer (pigweed, palmer [18]): 90 | Plant response rating, Ragweed (ragweed [19]): 40 | Plant response rating, Ryegrass, Italian (ryegrass, Italian [20]): 0 | Plant response rating, Soybean (soybean [21]): 100 | Plant response rating, Wheat (wheat [22]): 10 | Plant response rating, Galium (galium; [24]): 70 | Plant response rating, Galium (galium; [25]): 100 | Plant response rating, Horseweed (horseweed; [24]): 0 | Plant response rating, Horseweed (horseweed; [25]): 40 | Plant response rating, Barnyardgrass (Flood) (barnyardgrass [23]): 0 | Plant response rating, Ducksalad (Flood) (ducksalad): 15 | Plant response rating, Rice (Flood) (rice): 0 | Plant response rating, Sedge, Umbrella (Flood) (sedge, umbrella): 40
